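A five-concentration, 48-hour dose response in 96-well plates underlies each endpoint, interpolated linearly between surrounding concentrations. TGI denotes the concentration required for complete inhibition of growth.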
How the values were obtained:
Assay in all cases: NCI tumour cell line growth inhibition, 48 h
[1] = test system: EKVX NSCLC
[2] = test system: HCT-116 colon
[3] = test system: HCT-15 colon
[4] = test system: K-562 leukemia
[5] = test system: M14 melanoma
[6] = test system: SK-OV-3 ovarian
[7] = test system: SNB-19 CNS
[8] = test system: TK-10 renal
[9] = test system: U251 CNS
[10] = test system: UO-31 renal

SMILES | TGI [1] [µM] | TGI [2] [µM] | TGI [3] [µM] | TGI [4] [µM] | TGI [5] [µM] | TGI [6] [µM] | TGI [7] [µM] | TGI [8] [µM] | TGI [9] [µM] | TGI [10] [µM]
CCc1cc(Cc2cc(Cl)c(NC(=O)C(=O)C3NC(=O)NC3=O)c(CC)c2)cc(Cl)c1NC(=O)C(=O)C1NC(=O)NC1=O (stereo not given) | > 100 | 94.8 | 35.6 | > 100 | > 100 | > 100 | > 100 | > 100 | 40.1 | > 100
COC(=O)c1c(O)ccc2c1c1c(n2Cc2ccccc2Cl)C(=O)c2ccccc2C1=O | 32.5 | 31.2 | 31.8 | 97.3 | 34 | 27.2 | 33.7 | 30.6 | 30.2 | 24.8
Cc1c(Cl)nc(Nc2nc3ccccc3[nH]2)nc1Cl | 84.5 | > 100 | > 100 | > 100 | > 100 | > 100 | > 100 | > 100 | > 100 | > 100
CCCCC(C#N)(OP1(=O)OC(c2ccccc2)C(C)N1C)c1ccccc1 (stereo not given) | 39.8 | 30.4 | 54.8 | 44.8 | 38.3 | 43.7 | 36.4 | 37.1 | 31.4 | 31.4
O=C(/N=C/c1c(O)c2ccccc2oc1=O)Nc1ccccc1 | > 100 | > 100 | > 100 | > 100 | > 100 | > 100 | > 100 | > 100 | > 100 | > 100
CN(C)CCNC(=O)c1cccc2c(NCCN(C)C)c3ccccc3nc12 | 8.03 | 3.9 | 24.7 | 6.86 | 18.6 | 40.2 | 26.3 | 21.9 | 8.72 | 8.29
CCN(CC)CC1CCCCN1CC(=O)N1c2ccccc2NC(=O)CC1C (stereo not given) | > 100 | > 100 | > 100 | > 100 | > 100 | > 100 | > 100 | > 100 | > 100 | > 100
C[n+]1c(-c2ccc(/C=N/NC(=N)N/N=C/c3ccc(-c4cn5cc(Cl)ccc5[n+]4C)cc3)cc2)cn2cc(Cl)ccc21 | > 100 | > 100 | > 100 | > 100 | > 100 | > 100 | > 100 | > 100 | > 100 | > 100
BrCCCCCOc1ccc(-c2c3ccccc3c(-c3ccc(OCCCCCBr)cc3)c3ccccc23)cc1 | > 100 | > 100 | > 100 | > 100 | > 100 | > 100 | > 100 | > 100 | > 100 | > 100
NC(CCCC(N)P(=O)(O)c1ccccc1)P(=O)(O)c1ccccc1 (stereo not given) | > 261 | > 261 | > 261 | > 261 | > 261 | > 261 | > 261 | > 261 | > 261 | > 261
COC(=O)CCC(=O)NC1=C(NCc2ccccc2)C(=O)c2ccccc2C1=O | > 100 | > 100 | 51.5 | > 100 | > 100 | > 100 | > 100 | > 100 | 94.8 | > 100
S=C(NC1=NCC(CN2CCN(c3ccccc3)CC2)O1)Nc1ccccc1 (stereo not given) | > 100 | > 100 | > 100 | > 100 | > 100 | > 100 | > 100 | > 100 | > 100 | 97.5
CCCCC(=O)NS(=NC(=O)c1ccccc1)C(Cl)(Cl)Cl (stereo not given) | > 100 | > 100 | > 100 | > 100 | > 100 | > 100 | > 100 | > 100 | > 100 | > 100
Nc1nc(Cl)c(N)c(NCC2(CO)CC(OCc3ccccc3)C2)n1 (stereo not given) | > 100 | > 100 | > 100 | > 100 | > 100 | > 100 | > 100 | > 100 | > 100 | > 100
COC(=O)CCC(=O)NC1=C(Nc2ccc(OC)cc2)C(=O)c2ccccc2C1=O | 38.3 | 25 | 21.4 | > 86.8 | 19.7 | 88.1 | 37.7 | 85.3 | 57.5 | 32.1
OC(c1cc2ccccc2o1)c1cc2ccccc2s1 (stereo not given) | > 10 | > 10 | > 10 | > 10 | > 10 | > 10 | > 10 | > 10 | > 10 | > 10
[N-]=[N+]=C1N=CN=C1c1ncn[nH]1 | > 100 | > 100 | > 100 | 60 | > 100 | > 100 | > 100 | > 100 | > 100 | 86.3
